Consider two compounds from patent US20210330736A1 (UNIVERSITEIT VAN AMSTERDAM, priority 2018, published 2021).

Test [1] relates to Th Ser40 phosphorylation in mouse striatum slices. The test is described as follows: Th Ser40 phosphorylation in mouse striatal slices ex vivo (WES automated western). Type of test: cell-based. The following applies: mouse striatal slices in aCSF. From the text: FIG. 13. Bay 60-7550 and Guanylin synergize to induce Ser40 phosphorylation Analysis of striatal slices treated with indicated compounds. WES data showing the phosphorylation of Th on Serine 40 is shown as well as total Th levels (a). From left to right are sequential striatal slices from rostral to caudal. Every slice is split into left and right hemisphere and either treated with compounds or vehicle. Left a positive and negative control is shown (Neuro2a cells transfected with Th or empty vector). The amount of Th Ser40 is corrected for the amount of total Th and shown in the bar graph (b). Each individual slice is indicated by a different symbol. Signficance is determined using a 2-tailed paired t-test. 2-tailed paired t-test: p=0.006.
Adult mice with an average of 5 weeks were sacrificed and the brain was quickly removed and sliced into coronal sections of 250 μm using a vibratome. Sections containing striatum were micro-dissected to remove non-striatal structures. Hemispheres were separated and one hemisphere was treated with compounds whereas the counter-hemisphere was treated with vehicle. Treatment of slices occurred in carbonized artificial cerebrospinal fluid (aCSF). After treatments, slices were lyzed in SDS containing sample buffer, sonicated, and heated at 95° C. Samples were analyzed on a WES automated western system (Protein Simple) according to manufacturer's instructions.
To investigate the effect of PDE2 inhibition in the mouse brain, an ex-vivo approach using brain slices was utilized. Coronal slices of mouse striatum were prepared and treated with BAY-60 7550 diluted in aCSF and subsequently analyzed by a WES automated western system. […] PDE2 is thus expressed in dopaminergic neurons and PDE2 protein and Th protein are present in the synaptic terminals of the neurons which project from the midbrain dopamine system to the striatum. To investigate the effects of GUCY2C ligands on Th activation, coronal slices of the mouse striatum were prepared, treated with guanylin and analyzed for Th Ser40 phosphorylation as was done for BAY-60-7550. […] The machinery for producing dopamine is thus present in the synaptic terminals where dopamine is released. […] Since both BAY 60-7550 and guanylin increased Th phosphorylation at 10μM, but not at 1 μM, we examined the effect of combining BAY 60-7750 and guanylin at 1μM.

The next test addresses GUCY2C (Homo sapiens, UniProt P25092). Kind of test: Th Ser40 phosphorylation in HEK cells co-transfected with Th and GUCY2C (western blot). Also on record: expressed in transfected cells; host or cells: HEK cells (ATCC), calcium-phosphate transfection, co-transfected with mouse Th. Type of test: cell-based. The following applies: guanylin 10 μM, uroguanylin 1 μM, IBMX 100 μM, 1 hour. On the procedure: FIG. 4. GUCY2C activation increases Ser40 phosphorylation. Immunocytochemistry images (A) and western blotting analysis (B) of HEK cultures transfected with Th or Th+GUCY2C. (C) Co-transfected HEK cells were treated with guanylin (G) or uroguanylin (UroG) and changes in Ser40 phosphorylation were studied. The graph represents the statistical analysis (n=3 for Control, n=6 for Guanylin, n=9 for Uroguanylin; Mean±SEM). Unpaired Student's t-test (p-value: **<0.01).
FIG. 5. […] (A) HEK cultures were treated with guanylin, in the presence or absence of IBMX. […] Unpaired Student's t-test (p-values: ****<0.0001, **<0.01, *<0.05). (B) HEK cells were co-transfected with Th and either the wt GUCY2C or a gain-of-function mutant (R792S). Ser40 phosphorylation was studied following guanylin treatment (G). […] Unpaired Student's t-test (p-values: ***<0.001, **<0.01).
HEK cells were maintained in 100-mm Petri dishes and grown in DMEM medium supplemented with L-glutamine, penicillin-streptomycin (Pen&Strep) and 10% heat-inactivated fetal bovine serum (HIFBS). Growing conditions were 37° C. and 5% CO2. For every-other-day passages, HEK cultures were split at a 1:3 dilution. From Friday to Monday, the split proportion was doubled for all cell lines. For passaging, cultures were rinsed with PBS and incubated with 1 mL of trypsin during 5 minutes. Cells were resuspended in growth medium and finally split to the proper dilution. The experiments were performed in 12-well plates. For immunocytochemistry analysis, sterile 18-mm coverslips were added prior to the plating. 500 !μL of cell resuspension was seeded in each well. If experiments were to be performed 48 hours after the plate preparation, 1:5 was the seeding ratio for HEK cells. When the experiments took place 96 hours post-plating, 1:7 was the working dilution for HEK cells. Unless otherwise stated, HEK cultures were processed 96 hours post-plating.
HEK cells were transfected using the calcium-phosphate method. 12-well plates were refreshed with 500 μL of growth medium before transfection. […]
(In general: In western blotting, separated proteins are transferred to a membrane and probed.)

GUCY2C, sequence (P25092 24-1073): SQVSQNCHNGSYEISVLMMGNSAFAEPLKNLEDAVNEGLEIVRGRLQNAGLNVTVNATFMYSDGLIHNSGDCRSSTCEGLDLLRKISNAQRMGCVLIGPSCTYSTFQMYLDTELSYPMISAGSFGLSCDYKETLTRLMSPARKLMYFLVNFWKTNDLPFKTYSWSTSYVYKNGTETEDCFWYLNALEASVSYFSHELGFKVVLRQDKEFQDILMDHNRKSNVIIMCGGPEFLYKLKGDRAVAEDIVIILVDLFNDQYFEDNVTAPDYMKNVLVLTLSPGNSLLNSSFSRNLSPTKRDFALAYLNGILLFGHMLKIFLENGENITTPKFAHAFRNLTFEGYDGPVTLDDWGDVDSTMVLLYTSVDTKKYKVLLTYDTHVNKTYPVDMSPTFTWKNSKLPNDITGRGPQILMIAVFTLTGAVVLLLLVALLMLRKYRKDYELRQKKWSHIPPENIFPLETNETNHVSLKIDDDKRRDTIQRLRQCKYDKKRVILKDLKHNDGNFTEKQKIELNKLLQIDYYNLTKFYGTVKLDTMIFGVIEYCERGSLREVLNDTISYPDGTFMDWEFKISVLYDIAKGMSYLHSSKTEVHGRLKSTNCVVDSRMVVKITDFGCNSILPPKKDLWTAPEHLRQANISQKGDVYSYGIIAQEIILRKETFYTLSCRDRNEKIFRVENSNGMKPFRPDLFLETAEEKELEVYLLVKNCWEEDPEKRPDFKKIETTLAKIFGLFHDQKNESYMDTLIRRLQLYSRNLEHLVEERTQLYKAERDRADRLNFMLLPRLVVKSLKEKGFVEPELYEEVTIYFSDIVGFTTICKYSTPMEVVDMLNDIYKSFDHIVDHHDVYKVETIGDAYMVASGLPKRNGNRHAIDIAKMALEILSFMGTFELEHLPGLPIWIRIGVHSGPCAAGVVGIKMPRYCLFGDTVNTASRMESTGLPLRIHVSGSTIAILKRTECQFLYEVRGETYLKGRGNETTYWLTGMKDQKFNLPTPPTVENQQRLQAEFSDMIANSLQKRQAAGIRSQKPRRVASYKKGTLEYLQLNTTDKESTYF

Turning to `COc1ccc(Cc2nn3c([C@@H](CCCc4ccccc4)[C@@H](C)O)nc(C)c3c(=O)[nH]2)cc1OC` [BAY 60-7550], the entries for the “Ser40 phosphorylation in striatal slices” value in test [1] (1 μM) and in test [1] (10 μM) were “did not result in a significant increase” and “increase in Ser40 phosphorylation”, respectively.

“guanylin: natural agonistic ligand of GUCY2C, 15 amino acid polypeptide; commercially available rat/mouse guanylin (Chemcruz) (PNTCEICAYAACTGC) [reference compound]”: the “Ser40 phosphorylation in striatal slices” value in test [1] (1 μM) is reported as “did not result in a significant increase”; in test [1] (10 μM), “increase in Ser40 phosphorylation”. Further, the “P-Ser40 levels / Ser40 phosphorylation (in words)” value with GUCY2C was “increase P-Ser40 levels”.
